Measured values reported in patent US20220152188A1, “TLR4-TLR7 LIGAND FORMULATIONS AS VACCINE ADJUVANTS” (The Regents of the University of California, priority 2019, published 2022).

Experiments:
Format in all cases: cell-based
Details in all cases: Compound 1 = 100
IL-6 = assay: IL-6, mouse (Tables 1-3)
IL-8 = assay: IL-8, human (Tables 1-3)
IP-10 = assay: IP-10, mouse (Tables 1-3)
TLR4 [1] = target: TLR4 (Homo sapiens, UniProt O00206+Q9Y6Y9); assay: TLR4, human (Tables 1-3)
TLR4 [2] = target: T1, TLR4 (Mus musculus, UniProt Q9JHF9+Q9QUK6); assay: TLR4, mouse (Tables 1-3)
T1 sequence (Q9QUK6 26-835): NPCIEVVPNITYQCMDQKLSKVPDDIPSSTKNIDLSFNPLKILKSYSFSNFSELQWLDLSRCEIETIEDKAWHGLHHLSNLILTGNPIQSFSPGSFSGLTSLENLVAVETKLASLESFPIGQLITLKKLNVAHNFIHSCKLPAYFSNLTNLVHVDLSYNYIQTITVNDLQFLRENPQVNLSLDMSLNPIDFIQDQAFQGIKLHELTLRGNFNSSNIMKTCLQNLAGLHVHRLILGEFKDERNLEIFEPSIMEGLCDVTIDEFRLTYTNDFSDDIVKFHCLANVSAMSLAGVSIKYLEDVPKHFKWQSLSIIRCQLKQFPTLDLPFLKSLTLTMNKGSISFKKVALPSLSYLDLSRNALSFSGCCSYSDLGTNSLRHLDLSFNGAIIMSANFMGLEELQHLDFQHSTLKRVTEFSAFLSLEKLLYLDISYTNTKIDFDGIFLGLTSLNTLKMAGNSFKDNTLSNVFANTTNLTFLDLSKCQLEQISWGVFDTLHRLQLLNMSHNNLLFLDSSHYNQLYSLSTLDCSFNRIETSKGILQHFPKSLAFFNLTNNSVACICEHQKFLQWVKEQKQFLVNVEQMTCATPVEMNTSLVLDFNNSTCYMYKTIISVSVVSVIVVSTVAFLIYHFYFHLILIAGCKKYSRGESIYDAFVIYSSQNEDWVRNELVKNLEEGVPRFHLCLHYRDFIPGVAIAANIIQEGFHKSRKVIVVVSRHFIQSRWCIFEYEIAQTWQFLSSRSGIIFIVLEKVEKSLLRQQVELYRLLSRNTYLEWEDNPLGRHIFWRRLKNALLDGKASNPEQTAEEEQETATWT
T1 sequence (Q9JHF9 19-160): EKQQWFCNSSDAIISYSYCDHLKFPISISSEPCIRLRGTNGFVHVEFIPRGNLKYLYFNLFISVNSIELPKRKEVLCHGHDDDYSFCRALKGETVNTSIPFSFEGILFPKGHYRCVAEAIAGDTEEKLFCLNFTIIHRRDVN

[3] = Table 1, R^3 series, footnotes not given
Also: test concentration or dose not given here.

Sequence of TLR4 (Homo sapiens, UniProt O00206+Q9Y6Y9) (O00206 24-839): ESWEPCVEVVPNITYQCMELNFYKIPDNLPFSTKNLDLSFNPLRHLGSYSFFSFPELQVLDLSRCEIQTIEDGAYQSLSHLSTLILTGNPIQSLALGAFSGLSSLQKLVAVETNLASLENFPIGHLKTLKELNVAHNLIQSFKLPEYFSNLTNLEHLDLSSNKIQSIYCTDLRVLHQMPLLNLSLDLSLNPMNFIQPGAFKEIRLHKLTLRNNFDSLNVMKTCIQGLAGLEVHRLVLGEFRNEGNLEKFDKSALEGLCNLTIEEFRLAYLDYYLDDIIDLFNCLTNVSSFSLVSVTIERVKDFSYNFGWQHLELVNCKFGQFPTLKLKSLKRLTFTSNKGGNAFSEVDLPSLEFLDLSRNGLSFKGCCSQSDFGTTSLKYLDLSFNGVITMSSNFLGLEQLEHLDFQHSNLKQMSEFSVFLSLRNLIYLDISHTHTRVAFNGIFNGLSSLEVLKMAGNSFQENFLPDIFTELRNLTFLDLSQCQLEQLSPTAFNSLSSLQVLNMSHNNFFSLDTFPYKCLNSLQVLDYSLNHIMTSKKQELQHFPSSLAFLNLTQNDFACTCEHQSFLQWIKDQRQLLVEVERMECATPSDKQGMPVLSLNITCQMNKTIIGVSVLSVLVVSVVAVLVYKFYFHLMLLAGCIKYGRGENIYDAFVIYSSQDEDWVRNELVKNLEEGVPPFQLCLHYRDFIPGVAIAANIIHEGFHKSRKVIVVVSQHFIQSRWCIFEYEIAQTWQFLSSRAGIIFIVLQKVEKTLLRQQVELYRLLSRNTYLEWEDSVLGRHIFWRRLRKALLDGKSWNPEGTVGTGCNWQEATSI
Sequence of TLR4 (Homo sapiens, UniProt O00206+Q9Y6Y9) (Q9Y6Y9 17-160 limits assumed): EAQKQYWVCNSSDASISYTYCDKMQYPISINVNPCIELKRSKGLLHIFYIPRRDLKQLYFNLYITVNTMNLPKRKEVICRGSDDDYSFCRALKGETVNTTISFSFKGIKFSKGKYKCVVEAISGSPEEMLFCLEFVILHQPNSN

| Structure (SMILES) | mouse IL-6 (IL-6; [3]) | mouse IL-6 (IL-6; Table 2, R^2 series) | mouse IL-6 (IL-6; Table 3, R^1 series) | human IL-8 (IL-8; Table 1, R^3 series) | human IL-8 (IL-8; Table 2, R^2 series) | human IL-8 (IL-8; Table 3, R^1 series) | mouse IP-10 (IP-10; Table 1, R^3 series) | mouse IP-10 (IP-10; Table 2, R^2 series) | mouse IP-10 (IP-10; Table 3, R^1 series) | human TLR4 (TLR4 [1]; Table 1, R^3 series) | human TLR4 (TLR4 [1]; Table 2, R^2 series) | human TLR4 (TLR4 [1]; Table 3, R^1 series) | mouse TLR4 (TLR4 [2]; Table 1, R^3 series) | mouse TLR4 (TLR4 [2]; Table 2, R^2 series) | mouse TLR4 (TLR4 [2]; Table 3, R^1 series) |
| --- | --- | --- | --- | --- | --- | --- | --- | --- | --- | --- | --- | --- | --- | --- | --- |
| O=C(CSc1nc2c([nH]c3ccccc32)c(=O)n1-c1ccccc1)NC1CCCCC1 [Compound 1] | 100 | 100 | 100 | 100 | 100 | 100 | 100 | 100 | 100 | 100 | 100 | 100 | 100 | 100 | 100 |
| O=C(CSc1nc2c([nH]c3ccccc32)c(=O)n1-c1ccccc1)NC1CCCCCC1 [Compound 9] |  | 126 |  |  | 118 |  |  | 107 |  |  | 100 |  |  | 99 |  |
| O=C(CSc1nc2c([nH]c3ccccc32)c(=O)n1-c1ccccc1)NC1CCCCCCC1 [Compound 10] |  | 114 |  |  | 73 |  |  | 98 |  |  | 64 |  |  | 95 |  |
| O=C(CSc1nc2c([nH]c3ccccc32)c(=O)n1-c1ccccc1)NC1CCCC1 [Compound 11] |  | 53 |  |  | 5 |  |  | 52 |  |  | 23 |  |  | 28 |  |
| O=C(CSc1nc2c([nH]c3ccccc32)c(=O)n1-c1ccccc1)NC1CCC1 [Compound 12] |  | 35 |  |  | 19 |  |  | 66 |  |  | 32 |  |  | 18 |  |
| O=C(CSc1nc2c([nH]c3ccccc32)c(=O)n1-c1ccccc1)Nc1ccccc1 [Compound 13] |  | 11 |  |  | 15 |  |  | 44 |  |  | 31 |  |  | 21 |  |
| O=C(CSc1nc2c([nH]c3ccccc32)c(=O)n1-c1ccccc1)Nc1ccc(F)cc1 [Compound 14] |  | 103 |  |  | 107 |  |  | 70 |  |  | 108 |  |  | 81 |  |
| O=C(CSc1nc2c([nH]c3ccccc32)c(=O)n1-c1ccccc1)Nc1ccccc1F [Compound 15] |  | 36 |  |  | 61 |  |  | 54 |  |  | 71 |  |  | 43 |  |
| O=C(CSc1nc2c([nH]c3ccccc32)c(=O)n1-c1ccccc1)Nc1cccc(F)c1 [Compound 16] |  | 14 |  |  | 13 |  |  | 45 |  |  | 39 |  |  | 11 |  |
| Cc1cccc(NC(=O)CSc2nc3c([nH]c4ccccc43)c(=O)n2-c2ccccc2)c1 [Compound 17] |  | 19 |  |  | 54 |  |  | 55 |  |  | 116 |  |  | 13 |  |
| O=C(CSc1nc2c([nH]c3ccccc32)c(=O)n1-c1ccccc1)Nc1ccc2ccccc2c1 [Compound 18] |  | <1 |  |  | <1 |  |  | <1 |  |  | 21 |  |  | 2 |  |
| O=C(CSc1nc2c([nH]c3ccccc32)c(=O)n1-c1ccccc1)NCc1ccco1 [Compound 19] |  | 18 |  |  | 15 |  |  | 26 |  |  | 27 |  |  | 5 |  |
| O=C(CSc1nc2c([nH]c3ccccc32)c(=O)n1-c1ccccc1)Nc1ccc2cn[nH]c2c1 [Compound 20] |  | 3 |  |  | 7 |  |  | <1 |  |  | <1 |  |  | <1 |  |
| O=C(CSc1nc2c([nH]c3ccccc32)c(=O)n1-c1ccccc1)Nc1nccs1 [Compound 21] |  | 1 |  |  | 5 |  |  | <1 |  |  | 12 |  |  | 2 |  |
| CCNC(=O)CSc1nc2c([nH]c3ccccc32)c(=O)n1-c1ccccc1 [Compound 22] |  | <1 |  |  | 4 |  |  | <1 |  |  | 8 |  |  | <1 |  |
| CCCCCCNC(=O)CSc1nc2c([nH]c3ccccc32)c(=O)n1-c1ccccc1 [Compound 25] |  | <1 |  |  | 7 |  |  | <1 |  |  | 8 |  |  | 4 |  |

| Structure (SMILES) | mouse IL-6 (IL-6; [3]) | mouse IL-6 (IL-6; Table 2, R^2 series) | mouse IL-6 (IL-6; Table 3, R^1 series) | human IL-8 (IL-8; Table 1, R^3 series) | human IL-8 (IL-8; Table 2, R^2 series) | human IL-8 (IL-8; Table 3, R^1 series) | mouse IP-10 (IP-10; Table 1, R^3 series) | mouse IP-10 (IP-10; Table 2, R^2 series) | mouse IP-10 (IP-10; Table 3, R^1 series) | human TLR4 (TLR4 [1]; Table 1, R^3 series) | human TLR4 (TLR4 [1]; Table 2, R^2 series) | human TLR4 (TLR4 [1]; Table 3, R^1 series) | mouse TLR4 (TLR4 [2]; Table 1, R^3 series) | mouse TLR4 (TLR4 [2]; Table 2, R^2 series) | mouse TLR4 (TLR4 [2]; Table 3, R^1 series) |
| --- | --- | --- | --- | --- | --- | --- | --- | --- | --- | --- | --- | --- | --- | --- | --- |
| CC(C)CNC(=O)CSc1nc2c([nH]c3ccccc32)c(=O)n1-c1ccccc1 [Compound 26] |  | 44 |  |  | 11 |  |  | 53 |  |  | 21 |  |  | 24 |  |
| CC(C)CCNC(=O)CSc1nc2c([nH]c3ccccc32)c(=O)n1-c1ccccc1 [Compound 27] |  | 61 |  |  | 53 |  |  | 62 |  |  | 38 |  |  | 56 |  |
| CC(C)(C)CCNC(=O)CSc1nc2c([nH]c3ccccc32)c(=O)n1-c1ccccc1 [Compound 28] |  | 99 |  |  | 95 |  |  | 85 |  |  | 72 |  |  | 126 |  |
| CCC(C)CCNC(=O)CSc1nc2c([nH]c3ccccc32)c(=O)n1-c1ccccc1 (centres unmarked) [Compound 29] |  | 30 |  |  | 23 |  |  | 45 |  |  | 17 |  |  | 29 |  |
| CCCC(C)NC(=O)CSc1nc2c([nH]c3ccccc32)c(=O)n1-c1ccccc1 (centres unmarked) [Compound 30] |  | 12 |  |  | 6 |  |  | 55 |  |  | 13 |  |  | 17 |  |
| CCC(CC)NC(=O)CSc1nc2c([nH]c3ccccc32)c(=O)n1-c1ccccc1 [Compound 31] |  | 10 |  |  | <1 |  |  | 26 |  |  | 11 |  |  | 8 |  |
| O=C(CSc1nc2c([nH]c3ccccc32)c(=O)n1-c1ccccc1)NCC1CCCO1 (centres unmarked) [Compound 33] |  | 23 |  |  | 8 |  |  | 54 |  |  | 13 |  |  | 21 |  |
| O=C(CSc1nc2c([nH]c3ccccc32)c(=O)n1C1CCCCC1)NC1CCCCC1 [Compound 36] |  |  | 71 |  |  | 27 |  |  | 61 |  |  | 40 |  |  | 56 |
| O=C(CSc1nc2c([nH]c3ccccc32)c(=O)n1-c1ccc(F)cc1)NC1CCCCC1 [Compound 37] |  |  | 48 |  |  | 5 |  |  | 72 |  |  | 51 |  |  | 41 |
| Cc1ccc(-n2c(SCC(=O)NC3CCCCC3)nc3c([nH]c4ccccc43)c2=O)cc1 [Compound 38] |  |  | <1 |  |  | 6 |  |  | <1 |  |  | 2 |  |  | 2 |
| O=C(CSc1nc2c([nH]c3ccccc32)c(=O)n1-c1ccc2ccccc2c1)NC1CCCCC1 [Compound 39] |  |  | 3 |  |  | <1 |  |  | <1 |  |  | 3 |  |  | 6 |
| O=C(CSc1nc2c([nH]c3ccccc32)c(=O)n1CCc1ccccc1)NC1CCCCC1 [Compound 40] |  |  | <1 |  |  | 5 |  |  | <1 |  |  | 1 |  |  | 1 |
| Cn1c2ccccc2c2nc(SCC(=O)NC3CCCCC3)n(-c3ccccc3)c(=O)c21 [Compound 42] | 101 |  |  | 79 |  |  | 99 |  |  | 92 |  |  | 100 |  |  |
| CCCCCn1c2ccccc2c2nc(SCC(=O)NC3CCCCC3)n(-c3ccccc3)c(=O)c21 [Compound 49] | 5 |  |  | 1 |  |  | <1 |  |  | 11 |  |  | 6 |  |  |
| CCCCCCCCCCCCn1c2ccccc2c2nc(SCC(=O)NC3CCCCC3)n(-c3ccccc3)c(=O)c21 [Compound 50] | <1 |  |  | <1 |  |  | <1 |  |  | 10 |  |  | 4 |  |  |
| N#CCn1c2ccccc2c2nc(SCC(=O)NC3CCCCC3)n(-c3ccccc3)c(=O)c21 [Compound 51] | 98 |  |  | 30 |  |  | 64 |  |  | 19 |  |  | 55 |  |  |
